Experimental data from PubChem BioAssay AID1259407 (Chemical Carcinogenesis Research Information System (CCRIS), 2018).
The source made the active and inactive calls. The rule behind the calls is not given here.

System: CCRIS mutagenicity, Ames/micronucleus/aberration tests
Assay: CCRIS mutagenicity studies
[1] = Test System: AMES SALMONELLA TYPHIMURIUM, Strain/Indicator: TA100, Metabolic Activation: NONE, Method: STANDARD PLATE
[2] = Test System: AMES SALMONELLA TYPHIMURIUM, Strain/Indicator: TA98, Metabolic Activation: NONE, Method: PREINCUBATION
[3] = Test System: AMES SALMONELLA TYPHIMURIUM, Strain/Indicator: TA100, Metabolic Activation: NONE, Method: PREINCUBATION
[4] = Test System: AMES SALMONELLA TYPHIMURIUM, Strain/Indicator: TA98, Metabolic Activation: NONE, Method: STANDARD PLATE
[5] = Test System: AMES SALMONELLA TYPHIMURIUM, Strain/Indicator: TA98, Metabolic Activation: RAT, LIVER, S-9, AROCLOR 1254, Method: STANDARD PLATE
[6] = Test System: AMES SALMONELLA TYPHIMURIUM, Strain/Indicator: TA100, Metabolic Activation: RAT, LIVER, S-9, AROCLOR 1254, Method: STANDARD PLATE
[7] = Test System: AMES SALMONELLA TYPHIMURIUM, Strain/Indicator: TA1535, Metabolic Activation: NONE, Method: STANDARD PLATE
[8] = Test System: AMES SALMONELLA TYPHIMURIUM, Strain/Indicator: TA1535, Metabolic Activation: RAT, LIVER, S-9, AROCLOR 1254, Method: STANDARD PLATE
[9] = Test System: AMES SALMONELLA TYPHIMURIUM, Strain/Indicator: TA1537, Metabolic Activation: NONE, Method: STANDARD PLATE
[10] = Test System: AMES SALMONELLA TYPHIMURIUM, Strain/Indicator: TA1537, Metabolic Activation: RAT, LIVER, S-9, AROCLOR 1254, Method: STANDARD PLATE

For `O=P1(Oc2ccccc2)OCc2ccccc2O1` (stereo unspecified), the mutagenic call [1] was “active; positive” and the mutagenic call (Test System: AMES SALMONELLA TYPHIMURIUM, Strain/Indicator: TA100, Metabolic Activation: RAT, LIVER, MICROSOMES, Method: STANDARD PLATE) was “active; positive”.

`NC(=O)CN1CC(O)CC1=O` (stereo unspecified) was tested, and the mutagenic call (Test System: AMES SALMONELLA TYPHIMURIUM, Strain/Indicator: TA98, Metabolic Activation: NONE) was “inactive; negative”, the mutagenic call (Test System: AMES SALMONELLA TYPHIMURIUM, Strain/Indicator: TA98, Metabolic Activation: RAT, LIVER, S-9, AROCLOR 1254) was “inactive; negative” and the mutagenic call (Test System: AMES SALMONELLA TYPHIMURIUM, Strain/Indicator: TA100, Metabolic Activation: NONE) was “inactive; negative”. The mutagenic call (Test System: AMES SALMONELLA TYPHIMURIUM, Strain/Indicator: TA100, Metabolic Activation: RAT, LIVER, S-9, AROCLOR 1254) was “inactive; negative”, the mutagenic call (Test System: AMES SALMONELLA TYPHIMURIUM, Strain/Indicator: TA1535, Metabolic Activation: NONE) was “inactive; negative” and the mutagenic call (Test System: AMES SALMONELLA TYPHIMURIUM, Strain/Indicator: TA1535, Metabolic Activation: RAT, LIVER, S-9, AROCLOR 1254) was “inactive; negative”. The mutagenic call (Test System: AMES SALMONELLA TYPHIMURIUM, Strain/Indicator: TA1537, Metabolic Activation: NONE) was “inactive; negative”, the mutagenic call (Test System: AMES SALMONELLA TYPHIMURIUM, Strain/Indicator: TA1537, Metabolic Activation: RAT, LIVER, S-9, AROCLOR 1254) was “inactive; negative” and the mutagenic call (Test System: E. COLI, Strain/Indicator: WP2 UVRA, Metabolic Activation: NONE) was “inactive; negative”. For the same molecule, the mutagenic call (Test System: E. COLI, Strain/Indicator: WP2 UVRA, Metabolic Activation: RAT, LIVER, S-9, AROCLOR 1254) was “inactive; negative”.

`Nc1cccc2cccnc12` was tested, and the mutagenic call [2] was “active; positive”, the mutagenic call (Test System: AMES SALMONELLA TYPHIMURIUM, Strain/Indicator: TA98, Metabolic Activation: RAT, LIVER, S-9, KANECHLOR 500 OR PHENOBARBITAL AND BETA-NAPHTHOFLAVONE, Method: PREINCUBATION) was “active; positive” and the mutagenic call [3] was “active; positive”. The mutagenic call (Test System: AMES SALMONELLA TYPHIMURIUM, Strain/Indicator: TA100, Metabolic Activation: RAT, LIVER, S-9, KANECHLOR 500 OR PHENOBARBITAL AND BETA-NAPHTHOFLAVONE, Method: PREINCUBATION) was “active; positive” and the mutagenic call (Test System: AMES SALMONELLA TYPHIMURIUM, Strain/Indicator: TA100, Metabolic Activation: S-9, Method: PREINCUBATION) was “active; positive”.

With `COc1nsc2c([N+](=O)[O-])cccc12` the mutagenic call [1] was “active; positive”.

With `O=S1(=O)OC(c2cc(Br)c(O)c(Br)c2)(c2cc(Br)c(O)c(Br)c2)c2ccccc21` the mutagenic call [4] was “inactive; negative”, the mutagenic call [5] was “inactive; negative” and the mutagenic call [1] was “inactive; negative”. For the same molecule, the mutagenic call [6] was “inactive; negative”, the mutagenic call [7] was “inactive; negative” and the mutagenic call [8] was “inactive; negative”. For the same molecule, the mutagenic call [9] was “inactive; negative”, the mutagenic call [10] was “inactive; negative” and the mutagenic call (Test System: AMES SALMONELLA TYPHIMURIUM, Strain/Indicator: TA1538, Metabolic Activation: NONE, Method: STANDARD PLATE) was “inactive; negative”. For the same molecule, the mutagenic call (Test System: AMES SALMONELLA TYPHIMURIUM, Strain/Indicator: TA1538, Metabolic Activation: RAT, LIVER, S-9, AROCLOR 1254, Method: STANDARD PLATE) was “inactive; negative”, the mutagenic call (Test System: MOUSE LYMPHOMA, Strain/Indicator: L5178Y (TK+/TK-), Metabolic Activation: NONE, Method: SUSPENSION/PLATE) was “inactive; negative” and the mutagenic call (Test System: MOUSE LYMPHOMA, Strain/Indicator: L5178Y (TK+/TK-), Metabolic Activation: RAT, LIVER, S-9, AROCLOR 1254, Method: SUSPENSION/PLATE) was “inactive; negative”.

For `O=[N+]([O-])c1cc2c(cc1Cl)Oc1cc(Cl)c(Cl)cc1O2`, the mutagenic call [4] was “active; positive”, the mutagenic call (Test System: AMES SALMONELLA TYPHIMURIUM, Strain/Indicator: TA98, Metabolic Activation: RAT, LIVER, S-9, AROCLOR, Method: STANDARD PLATE) was “active; positive” and the mutagenic call [1] was “active; positive”. For the same molecule, the mutagenic call (Test System: AMES SALMONELLA TYPHIMURIUM, Strain/Indicator: TA100, Metabolic Activation: RAT, LIVER, S-9, AROCLOR, Method: STANDARD PLATE) was “active; positive”.

With `Clc1cccc(C2CO2)c1` (stereo unspecified) the mutagenic call (Test System: E. COLI, Strain/Indicator: WP2 UVRA, Metabolic Activation: NONE, Method: STANDARD PLATE) was “active; positive”.

With `COP(=S)(OC)Oc1ccc(N=O)c(C)c1` the mutagenic call [4] was “active; positive”, the mutagenic call [5] was “active; positive” and the mutagenic call [1] was “active; positive”. The mutagenic call [6] was “active; positive”.

For `CCOc1ccc(N)cc1`, the mutagenic call (Test System: AMES SALMONELLA TYPHIMURIUM, Strain/Indicator: TA98, Metabolic Activation: HAMSTER, LIVER, S-9, AROCLOR 1254 (30%), Method: PREINCUBATION) was “inactive; negative”, the mutagenic call [2] was “inactive; negative” and the mutagenic call (Test System: AMES SALMONELLA TYPHIMURIUM, Strain/Indicator: TA98, Metabolic Activation: RAT, LIVER, S-9, AROCLOR 1254 (30%), Method: PREINCUBATION) was “inactive; negative”. For the same molecule, the mutagenic call (Test System: AMES SALMONELLA TYPHIMURIUM, Strain/Indicator: TA100, Metabolic Activation: HAMSTER, LIVER, S-9, AROCLOR 1254 (30%), Method: PREINCUBATION) was “active; positive”, the mutagenic call (Test System: AMES SALMONELLA TYPHIMURIUM, Strain/Indicator: TA100, Metabolic Activation: HAMSTER, LIVER, S-9, KANECHLOR 400, Method: PREINCUBATION) was “active; positive” and the mutagenic call [3] was “inactive; negative”. The mutagenic call (Test System: AMES SALMONELLA TYPHIMURIUM, Strain/Indicator: TA100, Metabolic Activation: RAT, LIVER, S-9, AROCLOR 1254 (30%), Method: PREINCUBATION) was “active; positive” and the mutagenic call (Test System: UDS RODENT HEPATOCYTES, Strain/Indicator: THY INCORP (NON-S-PHASE), Metabolic Activation: NONE, Method: AUTORADIOGRAPHY) was “inactive; negative”.

For `CC1=CC(=O)CC(C)(C)C1`, the mutagenic call (End Point: IN VITRO CHROMOSOMAL ABERRATIONS, Test System: CHINESE HAMSTER LUNG FIBROBLAST CELLS (CHL/IU), Metabolic Activation: RAT, LIVER, S-9, PHENOBARBITAL AND 5,6-BENZOFLAVONE) was “active; positive (structural changes)”, the mutagenic call (End Point: IN VITRO CHROMOSOMAL ABERRATIONS, Test System: CHO CELLS, Metabolic Activation: NONE) was “inactive; negative; precipitation occurred at 1600 ug/ml” and the mutagenic call (End Point: IN VITRO CHROMOSOMAL ABERRATIONS, Test System: CHO CELLS, Metabolic Activation: RAT, LIVER, S-9, AROCLOR 1254) was “inactive; negative”. The mutagenic call (Test System: AMES SALMONELLA TYPHIMURIUM, Strain/Indicator: TA98, Metabolic Activation: HAMSTER, LIVER, S-9, AROCLOR 1254, Method: STANDARD PLATE) was “inactive; negative”, the mutagenic call [4] was “inactive; negative” and the mutagenic call [5] was “inactive; negative”. For the same molecule, the mutagenic call (Test System: AMES SALMONELLA TYPHIMURIUM, Strain/Indicator: TA100, Metabolic Activation: HAMSTER, LIVER, S-9, AROCLOR 1254, Method: STANDARD PLATE) was “inactive; negative”, the mutagenic call [1] was “inactive; negative” and the mutagenic call [6] was “inactive; negative”. For the same molecule, the mutagenic call (Test System: AMES SALMONELLA TYPHIMURIUM, Strain/Indicator: TA1535, Metabolic Activation: HAMSTER, LIVER, S-9, AROCLOR 1254, Method: STANDARD PLATE) was “inactive; negative”, the mutagenic call [7] was “inactive; negative” and the mutagenic call [8] was “inactive; negative”. For the same molecule, the mutagenic call (Test System: AMES SALMONELLA TYPHIMURIUM, Strain/Indicator: TA1537, Metabolic Activation: HAMSTER, LIVER, S-9, AROCLOR 1254, Method: STANDARD PLATE) was “inactive; negative”, the mutagenic call [9] was “inactive; negative” and the mutagenic call [10] was “inactive; negative”. The mutagenic call (Test System: MOUSE LYMPHOMA, Strain/Indicator: L5178Y (TK+/TK-), Metabolic Activation: NONE, Method: MICROWELL) was “inactive; negative”, the mutagenic call (Test System: MOUSE LYMPHOMA, Strain/Indicator: L5178Y (TK+/TK-), Metabolic Activation: RAT, LIVER, S-9, AROCLOR 1242 AND AROCLOR 1254 (2:1), Method: SUSPENSION/PLATE) was “inactive; negative” and the mutagenic call (Test System: UDS RAT HEPATOCYTES, Strain/Indicator: BROMODEOXYURIDINE INCORP, Metabolic Activation: NONE, Method: FLOW CYTOMETRIC ANALYSIS) was “active; positive”. The mutagenic call (Test System: UDS RAT HEPATOCYTES, Strain/Indicator: THY INCORP, Metabolic Activation: NONE, Method: AUTORADIOGRAPHY) was “active; positive”.
